Results as given in patent publication US9873709B2 (priority 2013, dated 2018).

System: JAK1-dependent STAT6 phosphorylation downstream of IL-13 stimulation in TF-1 human erythroleukemia cells
Assay: cells
Details: TF-1, read-out: IL-13-pSTAT6 IC50

SMILES	IC50
CN(Cc1ccc(N(C)C)cc1)C(=O)c1ccc(Nc2nc3c(C4=CCN(C(=O)CCC(F)(F)F)CC4)cccn3n2)cc1 [Example 2-406, N-[[4-(dimethylamino)phenyl]-methyl]-N-methyl-4-[[8-[1-(4,4,4-trifluorobutanoyl)-3,6-dihydro-2H-pyridin-4-yl]-[1,2,4]triazolo[1,5-a]pyridin-2-yl]amino]benzamide]	40.4 nM
O=C(NCC1CCNCC1)c1ccc(Nc2nc3c(N4CCC(O)(c5ccc(Cl)cc5)CC4)cccn3n2)cc1 [Example 1-184, 4-[[8-[4-(4-chlorophenyl)-4-hydroxy-1-piperidyl]-[1,2,4]triazolo[1,5-a]pyridin-2-yl]amino]-N-(4-piperidylmethyl)]	127 nM
O=C(CCC(F)(F)F)N1CC=C(c2cccn3nc(Nc4ccc(C(=O)N5CCN(Cc6ccccn6)CC5)cc4)nc23)CC1 [Example 2-95, 4,4,4-trifluoro-1-[4-[2-[4-[4-(2-pyridylmethyl)piperazine-1-carbonyl]anilino]-[1,2,4]triazolo[1,5-a]pyridin-8-yl]-3,6-dihydro-2H-pyridin-1-yl]butan-1-one]	4.3 nM
O=C(N[C@H]1CN2CCC1CC2)c1ccc(Nc2nc3c(N4CCC(O)(c5ccc(Cl)cc5)CC4)cccn3n2)cc1 [Example 1-89, 4-[[8-[4-(4-chlorophenyl)-4-hydroxy-1-piperidyl]-[1,2,4]triazolo[1,5-a]pyridin-2-yl]amino]-N-[(3R)-quinuclidin-3-yl]benzamide]	127 nM
CCOC(=O)N1CC=C(c2cccn3nc(Nc4ccc(C(=O)N(C)CCc5ccncc5)cc4)nc23)CC1 [Example 2-119, ethyl 4-[2-[4-[methyl-[2-(4-pyridyl)ethyl]carbamoyl]anilino]-[1,2,4]triazolo[1,5-a]pyridin-8-yl]-3,6-dihydro-2H-pyridine-1-carboxylate]	23.9 nM
NCC1CCCN1C(=O)c1ccc(Nc2nc3c(C4=CCN(C(=O)CCC(F)(F)F)CC4)cccn3n2)cc1 (centres unmarked) [Example 2-80, 1-[4-[2-[4-[2-(aminomethyl)pyrrolidine-1-carbonyl]anilino]-[1,2,4]triazolo[1,5-a]pyridin-8-yl]-3,6-dihydro-2H-pyridin-1-yl]-4,4,4-trifluoro-butan-1-one]	79.4 nM
CN(Cc1ccncc1)C(=O)c1ccc(Nc2nc3c(C4=CCN(C(=O)CCC(F)(F)F)CC4)cccn3n2)cc1 [Example 2-407, N-methyl-N-(4-pyridylmethyl)-4-[[8-[1-(4,4,4-trifluorobutanoyl)-3,6-dihydro-2H-pyridin-4-yl]-[1,2,4]triazolo[1,5-a]pyridin-2-yl]amino]benzamide]	4.7 nM
CCOC(=O)N1CC=C(c2cccn3nc(Nc4ccc(C(=O)N5CCNCC5C)cc4)nc23)CC1 (centres unmarked) [Example 2-24, ethyl 4-[2-[4-(2-methylpiperazine-1-carbonyl)anilino]-[1,2,4]triazolo[1,5-a]pyridin-8-yl]-3,6-dihydro-2H-pyridine-1-carboxylate]	21.6 nM
O=C(CCC(F)(F)F)N1CC=C(c2cccn3nc(Nc4ccc(C(=O)N5CCNCC5)cc4)nc23)CC1 [Example 2-318, 4,4,4-trifluoro-1-[4-[2-[4-(piperazine-1-carbonyl)anilino]-[1,2,4]triazolo[1,5-a]pyridin-8-yl]-3,6-dihydro-2H-pyridin-1-yl]butan-1-one]	37.7 nM
CN1CCC(N(C)C(=O)c2ccc(Nc3nc4c(C5=CCN(C(=O)C6CC6(C)C)CC5)cccn4n3)cc2)CC1 (centres unmarked) [Example 2-160, 4-[[8-[1-(2,2-dimethylcyclopropanecarbonyl)-3,6-dihydro-2H-pyridin-4-yl]-[1,2,4]triazolo[1,5-a]pyridin-2-yl]amino]-N-methyl-N-(1-methyl-4-piperidyl)benzamide]	47 nM
CCOC(=O)N1CC=C(c2cccn3nc(Nc4ccc(C(=O)NCCNC)cc4)nc23)CC1 [Example 2-230, ethyl 4-[2-[4-[2-(methylamino)ethylcarbamoyl]anilino]-[1,2,4]triazolo[1,5-a]pyridin-8-yl]-3,6-dihydro-2H-pyridine-1-carboxylate]	157 nM
CC(C)N1CCC(CN(C)C(=O)c2ccc(Nc3nc4c(C5=CCN(C(=O)CCC(F)(F)F)CC5)cccn4n3)cc2)C1 (centres unmarked) [Example 2-463, N-[(1-isopropylpyrrolidin-3-yl)methyl]-N-methyl-4-[[8-[1-(4,4,4-trifluorobutanoyl)-3,6-dihydro-2H-pyridin-4-yl]-[1,2,4]triazolo[1,5-a]pyridin-2-yl]amino]benzamide]	26 nM
CN1CCC(OC(=O)c2ccc(Nc3nc4c(C5=CCN(C(=O)CCC(F)(F)F)CC5)cccn4n3)cc2)CC1 [Example 2-264, (1-methyl-4-piperidyl) 4-[[8-[1-(4,4,4-trifluorobutanoyl)-3,6-dihydro-2H-pyridin-4-yl]-[1,2,4]triazolo[1,5-a]pyridin-2-yl]amino]benzoate]	11.7 nM
O=C(CCC(F)(F)F)N1CC=C(c2cccn3nc(Nc4ccc(C(=O)N5CC6(CNC6)C5)cc4)nc23)CC1 [Example 2-392, 1-[4-[2-[4-(2,6-diazaspiro[3.3]heptane-2-carbonyl)anilino]-[1,2,4]triazolo[1,5-a]pyridin-8-yl]-3,6-dihydro-2H-pyridin-1-yl]-4,4,4-trifluoro-butan-1-one]	217 nM
CN1CCC(N(C)C(=O)c2ccc(Nc3nc4c(C5=CCN(C(=O)[C@H]6CC[C@H](C#N)CC6)CC5)cccn4n3)cc2)CC1 [Example 2-350, 4-[[8-[1-(4-cyanocyclohexanecarbonyl)-3,6-dihydro-2H-pyridin-4-yl]-[1,2,4]triazolo[1,5-a]pyridin-2-yl]amino]-N-methyl-N-(1-methyl-4-piperidyl)benzamide]	719 nM
CCOC(=O)N1CC=C(c2cccn3nc(Nc4ccc(C(=O)N5CCC(c6ccccn6)CC5)cc4)nc23)CC1 [Example 2-358, ethyl 4-[2-[4-[4-(2-pyridyl)piperidine-1-carbonyl]anilino]-[1,2,4]triazolo[1,5-a]pyridin-8-yl]-3,6-dihydro-2H-pyridine-1-carboxylate]	41.3 nM
CN1CCC(NC(=O)c2ccc(Nc3nc4c(C5=CCN(C(=O)CCC(F)(F)F)CC5)cccn4n3)cc2)CC1 [Example 2-335, N-(1-methyl-4-piperidyl)-4-[[8-[1-(4,4,4-trifluorobutanoyl)-3,6-dihydro-2H-pyridin-4-yl]-[1,2,4]triazolo[1,5-a]pyridin-2-yl]amino]benzamide]	14.3 nM
CCOC(=O)N1CC=C(c2cccn3nc(Nc4ccc(C(=O)NCC(C)(C)N5CCOCC5)cc4)nc23)CC1 [Example 2-11, ethyl 4-[2-[4-[(2-methyl-2-morpholino-propyl)carbamoyl]anilino]-[1,2,4]triazolo[1,5-a]pyridin-8-yl]-3,6-dihydro-2H-pyridine-1-carboxylate]	6.7 nM
O=C(CCC(F)(F)F)N1CC=C(c2cccn3nc(Nc4ccc(C(=O)N5CCCCC56CCNCC6)cc4)nc23)CC1 [Example 2-450, 1-[4-[2-[4-(1,9-diazaspiro[5.5]undecane-1-carbonyl)anilino]-[1,2,4]triazolo[1,5-a]pyridin-8-yl]-3,6-dihydro-2H-pyridin-1-yl]-4,4,4-trifluoro-butan-1-one]	115 nM
O=C(NCCN1CCOCC1)c1ccc(Nc2nc3c(N4CCC(O)(c5ccc(Cl)cc5)CC4)cccn3n2)cc1 [Example 1-101, 4-[[8-[4-(4-chlorophenyl)-4-hydroxy-1-piperidyl]-[1,2,4]triazolo[1,5-a]pyridin-2-yl]amino]-N-(2-morpholinoethyl)benzamide]	14 nM
